Holding throughout (assay type): cell-based
Conditions in all cases: control, concentration not given, 100 μl per well

The test system of assay [1] is Candida albicans. The assay can be described thus: Anti-fungal activity, agar well diffusion (zone of inhibition). As to the method: (§1) The anti-microbial activity and the anti-fungal activity of the mouth freshener composition of the present disclosure was determined by testing it on Escherichia coli, Staphylococcus aureus and Candida albicans as the test microorganisms in comparison with a product presently available in the market (herein forward referred to as Product X), methanol and a standard drug i.e. Chlorhexidine. Escherichia coli, Staphylococcus aureus were grown in Luria-Bertani broth (LB broth) and Candida albicans was grown in Potato Dextrose broth (PD broth) until the growth reached approximately 10^6 cfu (colony forming units) per ml culture was attained. 100 μl of this culture was used for the antimicrobial assay. The 1-4% solution of powder extract was prepared by dissolving the extract in methanol as a solvent and all these solutions were store at 4° C. temperature till further use. Mueller-Hinton (HiMedia) agar plates were used to carry out the testing of the anti-microbial activity and Potato dextrose (Himedia) agar plates were used to carry out the testing of the anti-fungal activity of the mouth freshener composition. The dried surface of a Mueller-Hinton agar plate was inoculated by spreading 100 μl culture suspension on the agar surface. […]
(In agar diffusion tests the substance spreads into inoculated agar from a disc or well.)

Assay [2] has as its system Escherichia coli. Put plainly: Anti-microbial activity, agar well diffusion (zone of inhibition). Here is the method: as §1
Assay [3] relates to Staphylococcus aureus. The description is as above. As to the method: as §1

For `[H]/N=C(\N/C(=N/[H])NCCCCCCNC(=N)NC(=N)Nc1ccc(Cl)cc1)Nc1ccc(Cl)cc1` [Chlorhexidine], the figures for the Zone of inhibition in assay [1], in assay [2] and in assay [3] were 19 mm, 15 mm and 18 mm, respectively.
